Laboratory results reported in patent US20250332112A1, “IONIZABLE CATIONIC LIPIDS FOR LIPID NANOPARTICLES” (GENEVANT SCIENCES GMBH, priority 2022, published 2025).

Experiments:
[1] = Particle characteristics of LNPs containing luciferase mRNA and novel ionizable lipids; assay type: physicochemical; conditions: luciferase mRNA LNP 1.6:54.6:32.8:10.9
Method: The lipid solution contains 4 components: a PEG-conjugated lipid, an ionizable lipid, cholesterol, and a phospholipid (e.g., DSPC). Lipid stocks were prepared using the lipid identities and molar ratios as described, to achieve a total concentration of ˜7 mg/mL in 100% ethanol. Firefly luciferase mRNA (TriLink Biotechnologies, L-7202) or ornithine transcarbamylase (OTC) mRNA (TriLink Biotechnologies, custom designed) was diluted in acetate, pH 5 buffer and nuclease free water to achieve a target concentration of 0.366 mg/mL mRNA in 100 mM acetate, pH 5. Equal volumes of the lipid and nucleic acid solutions were blended at a flow rate of 400 mL/min through a T-connector, and diluted with ˜4 volumes of PBS, pH 7.4. Formulations were placed in Slide-A-Lyzer dialysis units (MWCO 10,000) and dialyzed overnight against 10 mM Tris, 500 mM NaCl, pH 8 buffer. Following dialysis, the formulations were concentrated to ˜0.6 mg/mL using VivaSpin concentrator units (MWCO 100,000) and dialyzed overnight against 5 mM Tris, 10% sucrose, pH 8 buffer. Formulations were filtered through a 0.2 μm syringe filter (PES membrane). Nucleic acid concentration was determined by the RiboGreen assay. Particle size and polydispersity were determined using a Malvern Nano Series Zetasizer.
LNP formulations containing novel ionizable lipids all produced stable particles with high encapsulation efficiency (Tables 1-7).

[2] = tested on: luciferase activity in the liver; test: Luciferase activity in liver after intravenous luciferase mRNA LNP; assay type: in vivo; conditions: 0.5 mg/kg IV, 6 h post-IV administration, BALB/c mice (n = 4)
Method: Frozen aliquots of liver were thawed and homogenized in 1 mL of 1×CCLR (Cell Culture Lysis Reagent) using a FastPrep® homogenizer. The homogenate was then centrifuged at 16,000 RPM for 10 minutes at 4° C. Twenty (20) μL of the supernatant was loaded into a 96-well white plate and luminescence measured following addition of luciferase reagent (Promega Luciferase Assay System). Luciferase activity was determined by comparing luminescence of the homogenized samples to luciferase protein standards. To account for any quenching of luminescence by components in the liver homogenate, luciferase was added to the liver homogenates of untreated animals and the resulting luminescence measured. The resulting quench factor was applied to all samples to obtain the corrected luciferase activity, and normalized per unit mass of tissue analyzed.

## CCCCCCCCCCC(CCCCCCC(=O)OCC(CCCCCC)CCCCCCCC)N(CCCCCCCCCC)C(=O)CCCN(C)C (centres unmarked) [Compound 1, 2-Hexyldecyl 8-(N-decyl-4-(dimethylamino)butanamido)-octadecanoate]
[1]; Table 5
  Final Product % EE: 99%
  Final Product PDI: 0.04
  Final Product Z-avg: 77 nm
[2]; Table 12
  Luc Activity: 1.70E+08 pg/g liver

## CCCCCCCCCCC(CCCCC(=O)OCC(CCCCCC)CCCCCCCC)N(CCCCCCCCCC)C(=O)CCCN(C)C (centres unmarked) [Compound 2, 2-Hexyldecyl 6-(N-decyl-4-(dimethylamino)butanamido)hexadecanoate]
[1]; Table 5
  Final Product % EE: 96%
  Final Product PDI: 0.08
  Final Product Z-avg: 81 nm
[2]; Table 12
  Luc Activity: 7.11E+07 pg/g liver

## CCCCCCCCCC(CC(=O)OCC(CCCCCC)CCCCCCCC)N(CCCN(C)C)C(=O)CCCCC(=O)OCC(CCCC)CCCCCC (centres unmarked) [Compound 21, 2-hexyldecyl 3-{6-[(2-butyloctyl)oxy]-N-[3-(dimethylamino)propyl]-6-oxohexanamido}dodecanoate]
[1]; Table 2
  Final Product % EE: 98%
  Final Product PDI: (0.03)
  Final Product Z-avg: 77 nm
[2]; Table 9
  Luc Activity: 4.58E+07 pg/g liver

## CCCCCCCCCC(CC(=O)OCC(CCCCCC)CCCCCCCC)N(CCCN(C)C)C(=O)CCCCCCC(=O)OCC(CCCC)CCCCCC (centres unmarked) [Compound 22, 2-Hexyldecyl 3-(8-((2-butyloctyl)oxy)-N-(3-(dimethylamino)propyl)-8-oxooctanamido)-dodecanoate]
[1]; Table 2
  Final Product % EE: 98%
  Final Product PDI: (0.04)
  Final Product Z-avg: 74 nm
[2]; Table 9
  Luc Activity: 4.71E+07 pg/g liver

## CCCCCCCCCCC(CCCC(=O)OCC(CCCCCC)CCCCCCCC)N(CCCN(C)C)C(=O)CCCCCCC(=O)OCC(CCCC)CCCCCC (centres unmarked) [Compound 25, 2-Hexyldecyl 5-(8-((2-butyloctyl)oxy)-N-(3-(dimethylamino)propyl)-8-oxooctanamido)-pentadecanoate]
[1]; Table 2
  Final Product % EE: 99%
  Final Product PDI: (0.03)
  Final Product Z-avg: 78 nm
[2]; Table 9
  Luc Activity: 7.76E+06 pg/g liver

## CCCCCCCCCCC(CCCCCC(=O)OCCCCC(CCCCCCCC)CCCCCCCC)N(CCCN(C)C)C(=O)CCCCCCC(=O)OC(CC)CCCCCCCC (centres unmarked) [Compound 27, 5-Octyltridecyl 7-(N-(3-(dimethylamino)propyl)-8-oxo-8-(undecan-3-yloxy)octanamido)-heptadecanoate]
[1]; Table 4
  Final Product % EE: 98%
  Final Product PDI: 0.04
  Final Product Z-avg: 86 nm
[2]; Table 11
  Luc Activity: 9.17E+06 pg/g liver

## CCCCCCCCCCC(CCCCCC(=O)OCCCCC(CCCCCCCC)CCCCCCCC)N(CCN(C)C)C(=O)CCCCCCC(=O)OC(CC)CCCCCCCC (centres unmarked) [Compound 28, 5-Octyltridecyl 7-(N-(2-(dimethylamino)ethyl)-8-oxo-8-(undecan-3-yloxy)octanamido)-heptadecanoate]
[1]; Table 4
  Final Product % EE: 95%
  Final Product PDI: 0.20
  Final Product Z-avg: 90 nm
[2]; Table 11
  Luc Activity: 6.50E+06 pg/g liver

## CCCCCCCCCCC(CCCCCC(=O)OCC(CCCCCC)CCCCCCCC)N(CCCN(C)C)C(=O)CCCCCCC(=O)OCC(CCCC)CCCCCC (centres unmarked) [Compound 29, 2-Hexyldecyl 7-(8-((2-butyloctyl)oxy)-N-(3-(dimethylamino)propyl)-8-oxooctanamido)-heptadecanoate]
[1]; Table 5
  Final Product % EE: 98%
  Final Product PDI: 0.02
  Final Product Z-avg: 80 nm
[2]; Table 12
  Luc Activity: 6.74E+07 pg/g liver

## CCCCCCCCCCC(CCCCCCC(=O)OCCC(CCCCC)CCCCC)N(CCCN(C)C)C(=O)CCCCCCC(=O)OCCC(CCCCC)CCCCC (centres unmarked) [Compound 30]
[2]; Table 12
  Luc Activity: 3.76E+07 pg/g liver

## CCCCCCCCCCC(CCCCCCC(=O)OC(CCCCCCCC)CCCCCCCC)N(CCCN(C)C)C(=O)CCCCCCC(=O)OCCC(CCCCC)CCCCC (centres unmarked) [Compound 31]
[2]; Table 12
  Luc Activity: 1.47E+07 pg/g liver

## CCCCC/C=C\CCCC(CCC/C=C\CCCCC)CN(C(=O)CCCCN(C)C)C(CCCCCCCCCC)CCCCCCC(=O)OCCCCCCCCCC (centres unmarked) [Compound 35]
[2]; Table 11
  Luc Activity: 1.40E+07 pg/g liver

## CCCCC/C=C\CCCC(CCC/C=C\CCCCC)CN(C(=O)CCCN(C)C)C(CCCCCCCCCC)CCCCCCC(=O)OCCCCCCCCCC (centres unmarked) [Compound 36]
[2]; Table 11
  Luc Activity: 5.54E+06 pg/g liver

## CCCCC/C=C\CCCC(CCC/C=C\CCCCC)CN(C(=O)CCN(C)C)C(CCCCCCCCCC)CCCCCCC(=O)OCCCCCCCCCC (centres unmarked) [Compound 37]
[2]; Table 11
  Luc Activity: 3.01E+06 pg/g liver

## CCCCCCCCCC(=O)N(CCCN(C)C)C(CCCCCCCCC)CCOC(=O)C(F)(CCCCCC)CCCCCCCC (centres unmarked) [Compound 40, 3-{N-[3-(dimethylamino)propyl]decanamido}dodecyl 2-fluoro-2-hexyldecanoate]
[1]; Table 2
  Final Product % EE: 98%
  Final Product PDI: (0.05)
  Final Product Z-avg: 87 nm
[2]; Table 9
  Luc Activity: 3.57E+07 pg/g liver

## CCCCCCCCCCC(CCCCCCC(=O)OCC(CCCCCC)CCCCCCCC)N(OCCCN(C)C)C(=O)CCCCCCC(=O)OCC(CCCC)CCCCCC (centres unmarked) [Compound 41, 2-hexyldecyl 8-{8-[(2-butyloctyl)oxy]-N-[3-(dimethylamino)propoxy]-8-oxooctanamido}octadecanoate]
[1]; Table 5
  Final Product % EE: 94%
  Final Product PDI: 0.04
  Final Product Z-avg: 70 nm
[2]; Table 12
  Luc Activity: 6.69E+06 pg/g liver

## CCCCCCCCCCC(CCCCCC(=O)OCC(CCCCCC)CCCCCCCC)N(OCCCN(C)C)C(=O)CCCCCCCCC (centres unmarked) [Compound 42, 2-hexyldecyl 7-{N-[3-(dimethylamino)propoxy]decanamido}heptadecanoate]
[1]; Table 5
  Final Product % EE: 97%
  Final Product PDI: 0.10
  Final Product Z-avg: 65 nm
[2]; Table 12
  Luc Activity: 1.14E+07 pg/g liver

## CCCCCCCCCCON(C(=O)CCCN(C)C)C(CCCCCCCCCC)CCCCCC(=O)OCC(CCCCCC)CCCCCCCC (centres unmarked) [Compound 44, 2-Hexyldecyl 7-(N-(decyloxy)-4-(dimethylamino)butanamido)heptadecanoate]
[1]; Table 5
  Final Product % EE: 98%
  Final Product PDI: 0.06
  Final Product Z-avg: 68 nm
[2]; Table 12
  Luc Activity: 6.17E+07 pg/g liver

## CCCCCCCCCCC(CCCCCCC(=O)OCC(CCCCCC)CCCCCCCC)N(CCCCCCCC(=O)OCC(CCCCCC)CCCCCCCC)C(=O)CCCN(C)C (centres unmarked) [Compound 63]
[2]; Table 12
  Luc Activity: 6.23E+07 pg/g liver

## CCCCCCCCCCC(CCCCCCC(=O)OCC(CCCCCC)CCCCCCCC)N(CCCCCCCC(=O)OCC(CCCCCC)CCCCCCCC)C(=O)CCCCN(C)C (centres unmarked) [Compound 64]
[2]; Table 12
  Luc Activity: 9.76E+07 pg/g liver

## CCCCCCCCCCC(CCCCCCC(=O)OC(CCCCCCCC)CCCCCCCC)N(CCCCCCCC(=O)OCCC(CCCCC)CCCCC)C(=O)CCCN(C)C (centres unmarked) [Compound 68]
[2]; Table 12
  Luc Activity: 4.36E+07 pg/g liver

## CCCCCCCCCCC(CCCCCCC(=O)OCC(CCCCCC)CCCCCCCC)N(CCCN(C)C)C(=O)CCCCCCC(=O)OCC(CCCC)CCCCCC (centres unmarked) [Compound 78]
[2]; Table 11
  Luc Activity: 5.30E+07 pg/g liver

## CCCCCCCCCCOC(=O)CCCCCCC(=O)N(CCCN(C)C)C(CCCCCCCCCC)CCCCCCC(=O)OCC(CCCCCC)CCCCCCCC (centres unmarked) [Compound 79]
[2]; Table 11
  Luc Activity: 1.05E+07 pg/g liver

## CCCCCCCCCCC(CCCCCCC(=O)OCC(CCCCCC)CCCCCCCC)N(CCCN(C)C)C(=O)CCCCCCCC(=O)OCC(CCCC)CCCCCC (centres unmarked) [Compound 80]
[2]; Table 12
  Luc Activity: 3.28E+07 pg/g liver

## CCCCCCCCCCC(CCCCCCC(=O)OCC(CCCCCC)CCCCCCCC)N(CCCN(C)C)C(=O)CCCCCCCCC(=O)OCC(CCCC)CCCCCC (centres unmarked) [Compound 81]
[2]; Table 12
  Luc Activity: 3.47E+07 pg/g liver

## CCCCCCCCCCC(CCCCCCC(=O)OCC(CCCCCC)CCCCCCCC)N(CCCN(C)C)C(=O)CCCCCCC(=O)OCCC(CCCCC)CCCCC (centres unmarked) [Compound 82]
[2]; Table 12
  Luc Activity: 1.23E+07 pg/g liver

## CCCCCCCCCCC(CCCCCCC(=O)OCC(CCCCCC)CCCCCCCC)N(CCCN(C)C)C(=O)CCCCCCC(=O)OCc1cc(CCCCCC)cc(CCCCCC)c1 (centres unmarked) [Compound 83]
[2]; Table 12
  Luc Activity: 4.59E+07 pg/g liver
